According to PMC5466822 (Organic & biomolecular chemistry, 2016):

Columns and labels:
[1] = target: T1, p97 (Homo sapiens, UniProt P55072); assay: malachite green ATPase assay, 9-point dose-response; format: biochemical
[2] = target: T1, p97; assay: malachite green ATPase assay, dose-response; format: biochemical

T1 sequence (P55072 2-806): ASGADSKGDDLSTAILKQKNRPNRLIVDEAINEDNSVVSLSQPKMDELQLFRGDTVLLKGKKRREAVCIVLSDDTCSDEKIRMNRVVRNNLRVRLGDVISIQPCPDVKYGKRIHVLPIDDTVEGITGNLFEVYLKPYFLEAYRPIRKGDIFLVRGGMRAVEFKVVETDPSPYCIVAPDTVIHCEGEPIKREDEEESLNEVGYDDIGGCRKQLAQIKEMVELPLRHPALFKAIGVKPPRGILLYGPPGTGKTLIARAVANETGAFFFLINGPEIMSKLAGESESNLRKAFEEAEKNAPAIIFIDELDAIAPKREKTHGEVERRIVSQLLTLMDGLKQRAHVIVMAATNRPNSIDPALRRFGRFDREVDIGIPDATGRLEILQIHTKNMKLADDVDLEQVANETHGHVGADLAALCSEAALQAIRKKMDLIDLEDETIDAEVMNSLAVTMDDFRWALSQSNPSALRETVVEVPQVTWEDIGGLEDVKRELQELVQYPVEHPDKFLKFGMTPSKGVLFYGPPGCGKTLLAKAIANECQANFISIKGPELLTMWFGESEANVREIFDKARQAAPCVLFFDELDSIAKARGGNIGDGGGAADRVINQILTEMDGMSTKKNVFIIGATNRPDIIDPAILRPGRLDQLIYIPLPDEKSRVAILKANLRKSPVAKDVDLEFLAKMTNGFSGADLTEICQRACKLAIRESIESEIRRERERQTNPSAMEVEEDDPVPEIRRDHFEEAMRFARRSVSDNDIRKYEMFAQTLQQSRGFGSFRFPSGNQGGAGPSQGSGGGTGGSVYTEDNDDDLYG

IC50 [2]	SMILES	IC50 [1]
–	C[C@H]1CCC/C=C/C(=O)c2c(O)cc(O)cc2CC(=O)O1 [compound 2, 10(11)-dehydrocurvularin]	15.3 ± 9.9 µM
24.3 µM	C[C@H]1CCC/C=C/C(=O)c2c(cc(O)c(Cl)c2O)CC(=O)O1 [compound 3, 6-chloro-10(11)-dehydrocurvularin]	–
13.9 µM	C[C@H]1CCC/C=C/C(=O)c2c(O)c(Cl)c(O)c(Cl)c2CC(=O)O1 [compound 4, 4,6-dichloro-10(11)-dehydrocurvularin]	–
